Measured values as given in patent US20230226103A1, “COMPOSITION FOR TREATING AND/OR PREVENTING COGNITIVE IMPAIRMENT OR DEMENTIA” (MiZ Company Limited, priority 2018, published 2023).
Several values for one entry are separate records, joined by “and”; a condition that tells them apart may be missing. Identical values can stand only once. Like-named read-outs stand apart in the source and are kept apart here.

How the values were obtained:
[1] = 4% hydrogen gas 15 minutes per day over 4 weeks
Method: (§1) Elderly women living in a community (n=13, 68.0±3.0 years old, body weight: 66.9±10.3 kg, height: 161.1±5.8 cm) volunteered for participants for the present open-label preliminary experiment (registered in ClinicalTrials.gov, NCT02830854). Individuals with a serious disease or a mental disease had been excluded as they met the exclusion criteria. This study was conducted according to the guideline of the Declaration of Helsinki, and the local ethics committee approved the protocol of the present clinical study. The participants all gave informed consent, and were each asked to keep their usual lifestyle and take meals as usual during the study. […] Mini Mental State Examination (MMSE) scores before the initiation of the study and 4 weeks thereafter were used to evaluate the therapeutic effect. In addition, assessment of other cognitive ability markers and evaluation of side effects were conducted based on the results before the initiation of the study and 4 weeks thereafter. The cognitive functions of the participants were evaluated by using the MMSE and the Alzheimer's Disease Assessment Scale-Cognitive subscale (ADAS-Cog). The MMSE is a 30-point questionnaire widely used in clinical practice to determine the degree of cognitive impairment of an elderly individual. The ADAS-Cog is a method, consisting of 11 tasks, of assessing cognitive abilities, and determines memory impairment, language impairment, praxis impairment, attention deficits, and other cognitive abilities to test for dementia. In addition to the assessments, the participants were asked to report adverse events during the study through self-assessment or an open-ended questionnaire on side effects (e.g., queasy feeling, headache). Statistical significance was determined by using a Wilcoxon signed-rank test (before the initiation of the study vs. 4 weeks thereafter). If p≤0.05 was satisfied, the result was considered statistically significant.

[2] = tested on: cognitive functions of women aged 65 years or more
Method: as §1

[3] = tested on: patients with mild to moderate dementia of the Alzheimer's type; conditions: 10 mg donepezil, 24-week (6-month) administration; rating score 0 to 70 points; cited from earlier work

Question: Which results are given for `[HH]` [H2, hydrogen gas]?
Answer: Adverse events / side effects associated with inhalation [1]: no sign of side effects; Adverse events / side effects associated with inhalation ([1]; listed as hydrogen gas): no adverse event; ADAS-Cog Language reproduction test After 4 weeks ([2]; 4% H2 inhaled 15 minutes per day over 4 weeks, baseline 3.6 ± 1.0): 8.1 ± 1.2; ADAS-Cog Language recognition After 4 weeks ([2]; 4% H2 inhaled 15 minutes per day over 4 weeks, baseline 4.2 ± 3.2): 1.1 ± 1.0; ADAS-Cog Language recognition % change ([2]; after 4 weeks vs baseline): −40.1%; ADAS-Cog Language reproduction test % change ([2]; after 4 weeks vs baseline): 140.0%; MMSE Total score % change ([2]; after 4 weeks vs baseline, 4% H2 inhaled 15 minutes per day): 13.7% and 14.2%; Number of women whose MMSE scores increased ([2]; among 13 women, after administration): 12; Improvement in ADAS-Cog converted from MMSE (Improvement in MMSE×2.33) ([2]; conversion formula BMC Neurol. 2002, 2:6): 8.16 points; Other 9 items in ADAS-Cog scoring, score ([2]; correctly executed in both tests (baseline and after 4 weeks)): 0; Cognitive functions (result in words) ([2]; elderly women with mild cognitive impairment, 4% hydrogen gas 15 minutes per day over 4 weeks): improved to normal levels; Improvement in the MMSE ([2]; inhalation of hydrogen gas for a month): 3.50 points

Question: For `COc1cc2c(cc1OC)C(=O)C(CC1CCN(Cc3ccccc3)CC1)C2` (stereo not shown) [donepezil], which “Reduction of ADAS-Cog score from the score at initiation of administration” value [3] is on record?
Answer: approximately 1.4 points
